The subject of experiment [1] is IL-23 signaling (STAT3 phosphorylation) in Kit225 cells. The experiment is described as follows: IL23 pSTAT3 AlphaLISA Assay. Type of experiment: cell-based. The following applies: 1 hour preincubation, IL23 25 ng/mL for 30 minutes, GeoMetric mean (SEM, n), read-out: relative IC50. Here is the method: IL2-dependent Kit225 cells (University of Texas MD Anderson Cancer Center) expressing endogenous IL23 receptors are stably transduced with the Lenti STAT3 Reporter linked to firefly luciferase (SABiosciences CLS-6028L). These cells are used to monitor TYK2 activity by quantifying gene expression caused by STAT3 phosporylation following induction by IL23 in the presence of IL2 using AlphaLISA technology (TGR Biosciences ALSU-TST3-A50K). The cells are grown in RPMI 1640 (Gibco 22400) supplemented with 10% FBS (Invitrogen 10082), 1× Pen/Strep (Gibco 15140-122), 200 ng/ml Puromycin (Sigma P9620), and fresh 10 ng/ml recombinant human IL2 (R&D Systems 202-IL-50).
For assay preparation, cells are dispensed into Biocoat black poly-d-lysine coated clear bottom 384-well plates (Becton Dickinson Bio-Coat 35-4640) in DMEM (Sigma D5796) at 300,000 cells/well and allowed to incubate overnight at 37° C. Compounds solubilized in DMSO are serially diluted 1:3 to produce a 10-point concentration response curve (final DMSO=0.1%). Cells are pre-incubated with Example 1 for 1 hour at 37° C., then stimulated with IL23 (25 ng/mL final) for 30 minutes. […] The AlphaLISA reaction is performed following the vendor's recommended protocol, and the […] are measured using an Envision plate reader (Perkin Elmer).

In experiment [2] the target is T1, pseudokinase domain (JH2) of human TYK2 (Homo sapiens, UniProt P29597).
T1 construct: The pseudokinase domain (JH2) of human JAK; made in house
The experiment can be described thus: TYK2-JH2 Tracer Binding Assay. The following applies: His-tagged TYK2-JH2 0.200 nM, Tracer 2.00 nM, TR-FRET, 30 minutes at room temperature. The source says:
The pseudokinase domain (JH2) of human JAK (Janus family of cytoplasmic tyrosine kinases) family tyrosine kinase 2 (TYK2) (Genbank NP_003322) with an N-terminal His6 tag is expressed in baculovirus and purified by HisPur Ni-NTA affinity and Superdex 200 size-exclusion chromatography. The compound prepared in Preparation 17, a conjugate of Alexa Fluor 647 dye (Thermo Fisher Scientific) and a suitable TYK2 JH2 binder, is referred to herein as “the Tracer”. A 3 fold, 10 point serial dilution of compound, Example 1 and Example 2, are prepared in 100% DMSO and 50 nL/well transferred to a Proxiplate-384F white plate (PerkinElmer 6008280) using acoustic liquid handling. Control wells used to determine percent inhibition contained 100% DMSO (50 nL) and either assay buffer containing the Tracer (2.00 nM final concentration) (min, low FRET) or diluted TYK2-JH2 enzyme (0.200 nM final concentration) and the Tracer (2.00 nM final concentration) (max, high FRET). […] After 30 minutes, the plate is counted on a PerkinElmer Envision with the following settings: Excitation (340 nm), Tracer Emission (665 nm) and LanthaScreen Eu-anti-His Antibody Emission (615 nm). The ratio of Tracer Emission (665 nm) over LanthaScreen Eu-anti-His Antibody Emission (615 nm) is determined.

The test system of experiment [3] is IFNα signaling through pSTAT1 in TF1 cells. The experiment can be described thus: Inhibition of IFNα Signaling Through pSTAT1 in TF1 Cells. Type of experiment: cell-based. The following applies: Homo sapiens, TF-1, 1 hr preincubation, 10 ng/mL IFNα2 for 20 minutes, p-Stat1 (Tyr701) AlphaLISA, GeoMetric mean (SEM, n). Here is the method: TF1 cells (ATCC, CL-2003) are grown in RPMI 1640 (GIBCO) supplemented with 10% dialyzed FBS, 0.1 mg/mL Ampicillin and 2 ng/mL granulocyte macrophage colony stimulating factor. TF1 cells (100 K per well) are seeded in a 96-well poly-D-lysine coated plates in serum-free DMEM and incubated overnight at 37° C. under 5% CO2. Example 1 is serially diluted in DMSO, added to the cells, and incubated at 37° C. for 1 hr. Cells are then stimulated with 10 ng/mL IFNα2 at 37° C. for 20 minutes. After removing the medium, the cells are lysed in buffer containing Halt protease and phosphatase inhibitor cocktail (Thermo Scientific #78441) at room temperature for 30 minutes. The amount of p-Stat1 (Tyr701) is quantified as light emission at 615 nm using the AlphaLISA SureFire Ultra p-Stat1 (Tyr701) assay kit (Perkin Elmer #ALSU-PST1-A50K) following the vendor's recommended protocol. Percent inhibition at each inhibitor concentration is calculated and fit to the four parameter nonlinear logistic equation using Genedata Screener® to give an IC50 for the compound of Example 1 of 0.007 μM (0.002 μM, n=4) and for the compound of Example 2 of 0.100 μM (0.014 μM, n=4) expressed as GeoMetric means with the standard error of the mean (SEM).
On the technique in general: In Alpha technology, singlet oxygen from a donor bead excites a nearby acceptor bead.

Among the data in patent publication US12060356B2, “7 (methylamino)pyrazolo[1,5-a]pyrimidine-3-carboxamide derivatives” (Eli Lilly and Company, priority 2018, dated 2024) are IC50 values, retold here.

pIC50: −log10 of the molar value. Some results are limits rather than exact numbers.

T1 sequence (P29597 589-875 limits assumed): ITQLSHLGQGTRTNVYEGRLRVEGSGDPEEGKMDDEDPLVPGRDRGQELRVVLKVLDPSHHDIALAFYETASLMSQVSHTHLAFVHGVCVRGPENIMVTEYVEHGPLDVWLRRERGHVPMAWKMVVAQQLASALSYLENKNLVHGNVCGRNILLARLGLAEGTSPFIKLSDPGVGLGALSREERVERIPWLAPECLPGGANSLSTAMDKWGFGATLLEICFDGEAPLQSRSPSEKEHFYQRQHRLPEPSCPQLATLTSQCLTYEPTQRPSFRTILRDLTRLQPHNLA

One may read the pIC50 as the IC50 on a negative log10 scale, so that one unit is a factor of ten. Regarding `CNc1cc(Nc2cccc3c2OCCC3)nc2c(C(=O)N[C@@H]3CCN(C)C3=O)cnn12` [Example 1, 5-(Chroman-8-ylamino)-7-(methylamino)-N-[(3R)-1-methyl-2-oxo-pyrrolidin-3-yl]pyrazolo[1,5-a]pyrimidine-3-carboxamide], the values for the pIC50 in experiment [1], in experiment [2] and in experiment [3] were 8.15, greater than 9.60 and 8.15, respectively.
As to `CNc1cc(Nc2cccc(C)n2)nc2c(C(=O)N[C@@H]3CCN(C)C3=O)cnn12` [Example 2, 7-(Methylamino)-N-[(3R)-1-methyl-2-oxo-pyrrolidin-3-yl]-5-[(6-methyl-2-pyridyl)amino]pyrazolo[1,5-a]pyrimidine-3-carboxamide], the results for the negative-log IC50 (pIC50) in experiment [1], in experiment [2] and in experiment [3] were 7.18, greater than 9.60 and 7.00, respectively.
